Source: patent publication US11326207B2, “Sequencing using non-natural nucleotides” (Ultima Genomics, Inc., priority 2017, dated 2022)

Key:
Format in all cases: biochemical
Bst 2.0 DNA polymerase [1] = assay: Homopolymer assay of dCTP analogs (Example 9); conditions: rates of fluorescence, homopolymer template
Description: (§1) A homopolymer assay was performed to investigate the effectiveness of E-dCTP and P-dUTP as nucleotide analogs of dCTP. 50 μl solutions containing a template nucleic acid molecule and primer and Bst 2.0 DNA polymerase are placed in a microplate reader and the fluorescence of the solution is measured in kinetic mode. A fluorescein attached to an oligonucleotide (indicated with a * in FIG. 7) was quenched in the substrate due to the proximity of complementary G bases. Addition of dCTP and/or dCTP analogs causes extension of the 3′ end of the primer, formation of double-stranded DNA, and unquenching of the fluorescein. The fluorescence increases with the addition of multiple nucleotides.

Bst 2.0 DNA polymerase [2] = assay: Homopolymer assays of nucleotide analogs (Example 10); conditions: Natural Nucleotide C (dCTP = 1); template oligo 333, primer 221L
Description: as §1
Additional homopolymer assays were performed according to the procedure outlined in Example 8 using different nucleotides and nucleotide analogs.
To test for dUTP or TTP incorporation, oligo 332 was used as a template and oligo 221L was used as a primer. To test for dCTP incorporation, oligo 333 was used as a template and oligo 221L was used as a primer. To test for dGTP incorporation, oligo 334 was used as a template and oligo 221L was used as a primer. To test for dATP incorporation, hairpin oligo 221 was used as both a primer and template.

Bst DNA polymerase = target: T1, Bst DNA polymerase (Geobacillus stearothermophilus, UniProt P52026); assay: Replacement of dCTP with P-dCTP, context metric (Example 10)
T1 sequence (P52026 1-876): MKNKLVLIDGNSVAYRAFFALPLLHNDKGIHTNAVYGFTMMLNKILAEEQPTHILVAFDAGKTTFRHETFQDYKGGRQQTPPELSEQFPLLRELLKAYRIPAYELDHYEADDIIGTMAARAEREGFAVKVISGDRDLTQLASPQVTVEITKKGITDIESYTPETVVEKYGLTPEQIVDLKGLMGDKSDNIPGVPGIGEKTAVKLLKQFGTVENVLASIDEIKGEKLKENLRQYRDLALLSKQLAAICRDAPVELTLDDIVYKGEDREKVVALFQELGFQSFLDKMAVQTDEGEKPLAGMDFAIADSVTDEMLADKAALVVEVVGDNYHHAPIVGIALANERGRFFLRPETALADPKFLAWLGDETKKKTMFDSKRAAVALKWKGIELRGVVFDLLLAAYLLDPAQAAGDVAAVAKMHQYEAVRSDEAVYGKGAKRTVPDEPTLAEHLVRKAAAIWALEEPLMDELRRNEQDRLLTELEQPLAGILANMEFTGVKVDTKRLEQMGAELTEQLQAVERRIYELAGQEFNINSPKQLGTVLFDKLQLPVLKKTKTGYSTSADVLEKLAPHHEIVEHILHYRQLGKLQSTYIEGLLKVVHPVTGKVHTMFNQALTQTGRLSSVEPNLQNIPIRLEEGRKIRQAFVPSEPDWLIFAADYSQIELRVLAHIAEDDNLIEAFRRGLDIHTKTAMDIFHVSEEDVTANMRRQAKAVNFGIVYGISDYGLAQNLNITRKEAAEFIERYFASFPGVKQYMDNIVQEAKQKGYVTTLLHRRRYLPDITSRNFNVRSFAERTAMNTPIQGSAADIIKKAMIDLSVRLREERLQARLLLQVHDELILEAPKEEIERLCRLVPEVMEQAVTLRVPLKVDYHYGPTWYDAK
Source text: A microscope slide surface was modified with polyaminosilane to allow the attachment of 1 micron beads each containing one of three different oligonucleotide templates. To each template was bound an oligonucleotide primer and Bst DNA polymerase. Solutions of mixtures of labeled and unlabeled nucleotide, of one type at a time, were exposed to the surface, followed by a wash solution. The fluorescence of labeled beads was detected and quantitated. The fluorescence label was cleaved by treatment with tris(hydroxypropyl)phosphine (THP) after each step.
Context was measured for each experiment. Context is given by the context metric, C, which is defined as the (maximum-minimum signal)/average signal.
Experiments were performed replacing dCTP with P-dCTP for three different oligonucleotide templates.

SMILES	rate of incorporation compared with natural dCTP (Bst 2.0 DNA polymerase [1])	Relative Rate in Homopolymer Assay (Bst 2.0 DNA polymerase [2])	C (context metric) (Bst DNA polymerase; Oligonucleotide template 1)	C (context metric) (Bst DNA polymerase; Oligonucleotide template 2)	C (context metric) (Bst DNA polymerase; Oligonucleotide template 3)
C#Cc1cn([C@H]2C[C@H](O)[C@@H](COP(=O)(O)OP(=O)(O)OP(=O)(O)O)O2)c(=O)nc1N [E-dCTP, 5-ethynyl-2′-deoxycytidine 5′triphosphate]	much faster than that of natural dCTP	>1	–	–	–
Nc1ccn([C@H]2C[C@H](O)[C@@H](COP(=O)(O)OP(=O)(O)OP(=O)(O)O)O2)c(=O)n1 [dCTP, deoxycytidine triphosphate]	–	1	0.85	0.72	0.70
